Patent US20260344668A1, “PHENYLPYRAZOLE COMPOUND, AND PLANT DISEASE CONTROL METHOD” (priority 2022, published 2026)

Tests used:
Botrytis cinerea = test: Test Example 4 Control Test Against Cucumber Botrytis Rot Fungus (96 well titer plate growth); assay type: cell-based; details: 1 μL of 150 ppm DMSO solution + 150 μL complete medium, 18° C., 4 days, absorbance at 550 nm
Description: The term of “non-treated well” in Test Example 4, Test Example 5, and Test Example 6 represents a well wherein a test was carried out under the same conditions as those described in each Test Example except for dispensing DMSO instead of a diluted solution with DMSO comprising the Present compound. Also, the term of “non-treated” in Test Examples 15 to 17 represents a test which was carried out under the same conditions as those described in each Test Example except for dispensing DMSO instead of a diluted solution with DMSO comprising the Present compound. Also, the term of “non-treated leaf disk” in Test Example 7 represents a leaf disk wherein a test was carried out under the same conditions as those described in the Test Example except for dispensing DMSO instead of a diluted solution with DMSO comprising the Present compound. […]
The Present compound 24 was diluted with DMSO to obtain a diluted solution containing 150 ppm of the compound, and 1 μL of the diluted solution was dispensed into a titer plate (96 well), and thereto was then dispensed 150 μL of a complete medium to which spores of Botrytis cinerea were inoculated in advance. This plate was cultured at 18° C. for 4 days, thereby allowing Botrytis cinerea to undergo proliferation, and the absorbance at 550 nm of each well of the titer plate was then measured to determine a degree of growth of Botrytis cinerea. […]

Phakopsora pachyrhizi = test: Test Example 17 Control Test Against Soybean Rust Fungus (spore germination, petri dish); assay type: cell-based; details: method according to Test Example 16
Description: The term of “non-treated well” in Test Example 4, Test Example 5, and Test Example 6 represents a well wherein a test was carried out under the same conditions as those described in each Test Example except for dispensing DMSO instead of a diluted solution with DMSO comprising the Present compound. Also, the term of “non-treated” in Test Examples 15 to 17 represents a test which was carried out under the same conditions as those described in each Test Example except for dispensing DMSO instead of a diluted solution with DMSO comprising the Present compound. Also, the term of “non-treated leaf disk” in Test Example 7 represents a leaf disk wherein a test was carried out under the same conditions as those described in the Test Example except for dispensing DMSO instead of a diluted solution with DMSO comprising the Present compound. Also, the term of “non-treated” in Test Example 10 and Test Example 11 means that a diluted solution with water of a formulation comprising the Present compound was not sprayed.
An agar medium (agar concentration: 1.0%) (3 mL) was placed in a plastic petri dish having a diameter of 3.5 cm, and solidified. […] This plastic petri dish was cultured at 23° C. for 1 day, and then germinated spores of Phakopsora pachyrhizi were counted. […]

| Compound | degree of growth relative to the degree of growth in the non-treated well (Botrytis cinerea) [%] | number of germinated spores relative to the non-treated plastic petri dish (Phakopsora pachyrhizi) [%] |
| --- | --- | --- |
| COc1ccccc1S(=O)(=O)n1ccc(-c2cc(F)c(Br)c(F)c2)n1 [compound 24] | ≤ 50 | – |
| Cc1ccc(S(=O)(=O)n2ccc(-c3ccc4c(c3)OC(F)(F)O4)n2)cc1 [compound 61] | – | ≤ 50 |
